Test: Solubility of the photoinitiator in frequently used organic solvents
Assay type: physicochemical
Conditions: for Solubility in 3-MBA: solvent 3-methoxybutyl acetate (MBA); for Solubility in CH: solvent cyclohexanone (CH); for Solubility in DPM: solvent dipropylene glycol methyl ether (DPM); for Solubility in EEP: solvent ethyl-3-ethoxy propionate (EEP); for Solubility in PGMEA: solvent propylene glycol methyl ether acetate (PGMEA)
Experimental: For the comparison of the solubility of the compound that comprises oxime ester, in conjunction with Irgacure OXE-02 (Comparative Example 1) of Ciba Specialty Chemical, the solubilities of the compounds of Examples were measured in respects to the solvents that were frequently used, such as propylene glycol methyl ether acetate (PGMEA), dipropylene glycol methyl ether (DPM), 3-methoxybutyl acetate (MBA), ethyl-3-ethoxy propionate (EEP), and cyclohexanone (CH). The solubility was measured on the basis of how many grams of the photoinitiator were dissolved in 100 g of the solvent, and the results are described in the following Table 1.

SMILES | Solubility in 3-MBA | Solubility in DPM | Solubility in EEP | Solubility in CH | Solubility in PGMEA
CSc1ccc(C(C/C(=N\OC(C)=O)c2ccc(/C(CC(c3ccc(SC)cc3)N(OC(C)=O)C(C)=O)=N/OC(C)=O)cc2)N(OC(C)=O)C(C)=O)cc1 (stereo not drawn) [Example 2] | 50 or more grams in 100 g of the solvent | 50 or more grams in 100 g of the solvent | 50 or more grams in 100 g of the solvent | 100 or more grams in 100 g of the solvent | 100 or more grams in 100 g of the solvent
CCn1c2ccc(/C(CC(c3ccc(SC)cc3)N(OC(C)=O)C(C)=O)=N/OC(C)=O)cc2c2cc(/C(CC(c3ccc(SC)cc3)N(OC(C)=O)C(C)=O)=N/OC(C)=O)ccc21 (stereo not drawn) [Example 5] | 50 or more grams in 100 g of the solvent | 50 or more grams in 100 g of the solvent | 50 or more grams in 100 g of the solvent | 100 or more grams in 100 g of the solvent | 100 or more grams in 100 g of the solvent
CCn1c2ccc(/C(CC(c3cccs3)N(OC(C)=O)C(C)=O)=N/OC(C)=O)cc2c2cc(/C(CC(c3cccs3)N(OC(C)=O)C(C)=O)=N/OC(C)=O)ccc21 (stereo not drawn) [Example 4] | 30 grams in 100 g of the solvent | 25 grams in 100 g of the solvent | 30 grams in 100 g of the solvent | 100 or more grams in 100 g of the solvent | 100 or more grams in 100 g of the solvent
CCn1c2ccc(C(=O)c3ccccc3C)cc2c2cc(/C(C)=N/OC(C)=O)ccc21 [Comparative Example 1, reference compound] | 10 grams in 100 g of the solvent | 5 grams in 100 g of the solvent | 10 grams in 100 g of the solvent | 40 grams in 100 g of the solvent | 12 grams in 100 g of the solvent

Second part, led by results:

Solubility in 3-MBA | Solubility in DPM | Solubility in EEP | SMILES | Solubility in CH | Solubility in PGMEA
50 or more grams in 100 g of the solvent | 50 or more grams in 100 g of the solvent | 50 or more grams in 100 g of the solvent | CC(=O)O/N=C(\CC(c1ccc(C(C/C(=N\OC(C)=O)c2ccccc2)N(OC(C)=O)C(C)=O)cc1)N(OC(C)=O)C(C)=O)c1ccccc1 (stereo not drawn) [Example 1] | 100 or more grams in 100 g of the solvent | 100 or more grams in 100 g of the solvent
50 or more grams in 100 g of the solvent | 50 or more grams in 100 g of the solvent | 50 or more grams in 100 g of the solvent | CCn1c2ccc(/C(CC(c3ccccc3)N(OC(C)=O)C(C)=O)=N/OC(C)=O)cc2c2cc(/C(CC(c3ccccc3)N(OC(C)=O)C(C)=O)=N/OC(C)=O)ccc21 (stereo not drawn) [Example 3] | 100 or more grams in 100 g of the solvent | 100 or more grams in 100 g of the solvent

Source: US8198462B2, “Dendritic photoactive compound comprising oxime ester and method for preparing the same” (LG Chem, Ltd., priority 2007, dated 2012)
